Results as given in patent US20110044938A1 (NYCOMED GMBH, priority 2006, published 2011).

Tests used:
[1] = system: RKO (RKOp27) human colon adenocarcinoma cells; assay: Alamar Blue cell viability assay, anti-proliferative/cytotoxic activity on proliferating RKO subclones; format: cell-based; conditions: RKOp27, 72 h, RKO p27 uninduced (proliferating) cells, value = class bound given in Table A, read-out: −logIC50 RKO p27 uninduced (proliferating) (converted)
Outline: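 Alamar Blue fluorescence (ex 544, em 590 nm) after 72 h compound exposure at 37 °C, 5% CO2, normalised to untreated controls set at 100%. Cells were seeded at 5000 per well and dosed 24 h later with serial semi-logarithmic dilutions in 10% FCS DMEM, four replicates each. −log IC50 [mol/l] was derived from concentration-effect curves.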

[2] = system: subclones of RKO colon adenocarcinoma cells (RKOp27 or RKOp21) arrested by Ponasterone A; assay: Alamar Blue cell viability assay, cell cycle specific mode of action: cells arrested by ectopic p27Kip1 induced by Ponasterone A versus proliferating cells; format: cell-based; conditions: Homo sapiens, RKO p27 induced (arrested) cells, 10 μM Ponasterone A, 72 hours, value = class bound given in Table A, read-out: −logIC50 RKO p27 induced (arrested) (converted)
Outline: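 Viability of proliferating versus Ponasterone A (10 μM)-arrested RKOp27/RKOp21 cells after 72 h compound exposure at 37° C, in quadruplicate. Read-out is Alamar Blue fluorescence (544/590 nm) normalised to untreated cells = 100%; values as −log IC50.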

IC50 [2] | Compound | IC50 [1]
≥ 50.1 µM | Cc1cc(CNC(=O)OC2CCc3c(sc(NC(=O)CC(C)c4ccccc4)c3C#N)C2)on1 (centres unmarked) [Example 373, (3-Methyl-isoxazol-5-ylmethyl)-carbamic acid 3-cyano-2-(3-phenyl-butanoylamino)-4,5,6,7-tetrahydro-benzo[b]thiophen-6-yl ester] | ≤ 0.501 µM
≥ 50.1 µM | COc1cccc(C(C)CC(=O)Nc2sc3c(c2C#N)CCC(OC(=O)N2CCOCC2)C3)c1 (centres unmarked) [Example 374, Morpholine-4-carboxylic acid 3-cyano-2-(3-(3-methoxy-phenyl)-butanoylamino)-4,5,6,7-tetrahydro-benzo[b] thiophen-6-yl ester] | ≤ 0.501 µM
≥ 10 µM | COc1cccc(C(C)CC(=O)Nc2sc3c(c2C#N)CCC(OC(=O)N2CCCC2)C3)c1 (centres unmarked) [Example 376, Pyrrolidine-1-carboxylic acid 3-cyano-2-(3-(3-methoxy-phenyl)-butanoylamino)-4,5,6,7-tetrahydro-benzo[b] thiophen-6-yl ester] | ≤ 0.501 µM

The next lines start with the compound.

Compound | IC50 [2] | IC50 [1]
CC(CC(=O)Nc1sc2c(c1C#N)CCC(OC(=O)NCc1ccno1)C2)c1ccccc1 (centres unmarked) [Example 372, (Isoxazol-5-ylmethyl)-carbamic acid 3-cyano-2-(3-phenyl-butanoylamino)-4,5,6,7-tetrahydro-benzo[b]thiophen-6-yl ester] | ≥ 50.1 µM | ≤ 0.501 µM
CC(CC(=O)Nc1sc2c(c1C#N)CCC(OC(=O)OCc1cncs1)C2)c1ccccc1 (centres unmarked) [Example 375, Carbonic acid 3-cyano-2-(3-phenyl-butanoyl-amino)-4,5,6,7-tetrahydro-benzo[b] thiophen-6-yl ester thiazol-5-ylmethyl ester] | ≥ 10 µM | ≤ 0.501 µM
Cc1nc(CNC(=O)OCC2CCc3c(sc(NC(=O)CC(C)c4cccnc4)c3C#N)C2)cs1 (centres unmarked) [Example 377, (2-Methyl-thiazol-4-ylmethyl)-carbamic acid 3-cyano-2-(3-pyridin-3-yl-butanoylamino)-4,5,6,7-tetrahydro-benzo[b]thiophen-6-ylmethyl ester] | ≥ 10 µM | 0.501 to 2 µM
CC(CC(=O)Nc1sc2c(c1C#N)CCC(COC(=O)N1CCOCC1)C2)c1ccccc1 (centres unmarked) [Example 378, Morpholine-4-carboxylic acid 3-cyano-2-[3-phenyl-butanoyl-amino]-4,5,6,7-tetrahydro-benzo[b] thiophen-6-ylmethyl ester] | ≥ 10 µM | ≤ 0.501 µM
